These results are taken from patent publication US11607422B2, “Uttroside B and derivatives thereof as therapeutics for hepatocellular carcinoma” (Rajiv Gandhi Centre for Biotechnology, an Autonomous …, priority 2016, dated 2023).

Series [1] deals with HepG2 cells. The series is described as follows: MTT cell viability assay in HepG2 cells. It is filed as cell-based, human. The conditions noted are these: 72 h, MTT assay; read-out: IC50, cytotoxicity towards HepG2 cells. The protocol: Stocks of crude extracts and isolated compound of S. nigrum was prepared in DMSO for the in vitro studies and stored at −20° C. The DMSO concentration in all studies, including controls, was ≤0.2%. Cell viability assay was performed after 72 h of drug treatment while whole cell lysate preparation and cell cycle analysis were done after 24 h and 48 h of drug treatment. For studying NF-κB and AP-1, Uttroside B was incubated for 2 h before extraction.
MTT [3-(4,5-dimethylthiazole-2-yl)-2,5-diphenyltetrazolium bromide] assay is a standard colorimetric assay, suitable for analyzing proliferation, viability, and cytotoxicity. Briefly, the HepG2 cells were seeded in 96-well plates (2000 cells/well). […] Fresh media containing 25 μL of MTT solution (5 mg/mL in PBS) and 75 μL of complete medium was added to the wells and incubated for 2 h. At the end of incubation, lysis buffer (20% sodium dodecyl sulphate in 50% dimethyl formamide)was added to the wells (0.1 mL/well) and incubated for another 1 h at 37° C. At the end of incubation, the optical density was measured at 570 nm using ELISA plate reader (Bio-Rad). The relative cell viability in percentage was calculated as (A570 of treated samples/A570 of untreated samples)×100. The IC50 values were extrapolated from polynomial regression analysis of study data.^17
(Formazan colour is commonly taken as a measure of viable cells.)

The subject of series [2] is hepatocellular carcinoma cells (HepG2, Hep3B, SKHep1, and Huh-7). The series is described as follows: MTT assay in different hepatocellular carcinoma cells. The following applies: SKHep1, Huh-7, 72 h, read-out: IC50 in liver cancer cells. Format: cell-based. The protocol: FIG. 2A is a graph comparison of IC50 of Uttroside B in a panel of cancer cells of different origin. The cancer cell lines HeLa, A375, HepG2, MDA-MB-231, HL 60, A549 and HCT116 were treated with Uttroside B as indicated, incubated for 72 h and the cell viability was assessed by MTT assay. FIG. 2B is a graph showing dose dependent effect of Uttroside B in the liver cancer cell lines and in normal immortalized hepatocytes. The liver cancer cell lines HepG2, Hep3B, SKHEP-1, Huh-7 and normal hepatocytes (Chang liver), were treated with Uttroside B incubated for 72 h and the cell viability was assessed by MTT assay. FIG. 2C is a graph comparison of IC50 of Uttroside B with sorafenib. HepG2 cells were treated with Uttroside B as indicated, incubated for 72 h, and the cell viability was assessed by MTT assay. […] The clones developed were counted and plotted as a graph. Colony containing more than four cells was counted as one clone. […]
MTT [3-(4,5-dimethylthiazole-2-yl)-2,5-diphenyltetrazolium bromide] assay is a standard colorimetric assay, suitable for analyzing proliferation, viability, and cytotoxicity. […] After overnight incubation, cells were treated with different concentrations of organic extracts (25-250 μg/ml) of S. nigrum and the isolated compound Uttroside B (250-1250 nM) for 72 h and cytotoxicity was measured. […]

Series [3] deals with HCT-116. The following applies: literature ref 13; read-out: IC50, cytotoxicity against HCT-116 (colon cancer cells); cited from earlier work.

Broadly, the IC50 is the midpoint of a concentration-inhibition curve. Consider `C[C@H](CC[C@@]1(O)O[C@H]2C[C@H]3[C@@H]4CC[C@H]5C[C@@H](O[C@@H]6O[C@H](CO)[C@H](O[C@@H]7O[C@H](CO)[C@@H](O)[C@H](O[C@@H]8OC[C@@H](O)[C@H](O)[C@H]8O)[C@H]7O[C@@H]7O[C@H](CO)[C@@H](O)[C@H](O)[C@H]7O)[C@H](O)[C@H]6O)CC[C@]5(C)[C@H]4CC[C@]3(C)[C@H]2[C@@H]1C)CO[C@@H]1O[C@H](CO)[C@@H](O)[C@H](O)[C@H]1O` [Uttroside B], for which the concentration for half-maximal inhibition (IC50) in series [1] was 0.5 µM; in series [2], 0.4 to 0.6 µM; in series [3], 2.33 µM.
